For 1 molecule, Ki results are on record in ChEMBL document CHEMBL1126318, “Discovery of a potent substance P antagonist: recognition of the key molecular determinant” (J Med Chem, 1992).

The target in the assay is Substance-P receptor (Homo sapiens, UniProt P25103). In words: In vitro binding affinity for the Tachykinin receptor 1 in human IM-9 cell using [125I]BH-SP of the compound. The assay is classed as cell-based.
Sequence of Substance-P receptor (P25103 whole entry): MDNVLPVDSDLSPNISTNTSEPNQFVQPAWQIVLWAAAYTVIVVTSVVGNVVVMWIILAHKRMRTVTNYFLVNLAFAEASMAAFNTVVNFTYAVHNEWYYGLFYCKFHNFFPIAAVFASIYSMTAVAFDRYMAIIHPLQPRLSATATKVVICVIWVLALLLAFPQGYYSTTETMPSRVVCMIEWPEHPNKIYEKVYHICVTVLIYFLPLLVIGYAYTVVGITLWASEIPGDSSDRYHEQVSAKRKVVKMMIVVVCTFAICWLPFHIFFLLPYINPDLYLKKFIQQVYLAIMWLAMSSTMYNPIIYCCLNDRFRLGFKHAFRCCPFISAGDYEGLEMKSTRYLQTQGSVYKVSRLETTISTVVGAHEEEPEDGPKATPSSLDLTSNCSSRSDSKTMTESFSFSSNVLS

The Ki is the equilibrium dissociation constant of an inhibitor or competing ligand from its target. In the case of `COc1ccccc1CN[C@H]1CCCN[C@H]1C(c1ccccc1)c1ccccc1` (racemic), the affinity, expressed as Ki, was 49 nM.
